Source: the supplement of paper PMC5662764
± gives the standard deviation of the averaged measurements.

Assays:
Assay in all cases: normalised growth rate inhibition (GR value) relative to DMSO control (GR (1 = untreated growth, 0 = cytostasis, <0 = cytotoxic)); higher = less growth inhibition
Conditions in all cases: 72 h
MDAMB231 = test system: MDAMB231
Experimental: (§1)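 Breast cancer cell lines (BT-20, Hs 578T, MCF 10A, MCF7, MDA-MB-231, SK-BR-3) were plated in 384-well plates and treated 24 h later with drugs at six concentrations (0.04-10 µM). Viable cells were counted by Hoechst/dead-cell-stain imaging at 0 and 72 h. Counts were normalised to DMSO controls on the same plate to give the relative cell count and the growth-rate inhibition (GR) value; technical plate triplicates were averaged for each biological replicate.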

MCF7 = test system: MCF7
Experimental: as §1

SKBR3 = test system: SKBR3
Experimental: as §1

HS578T = test system: HS578T
Experimental: as §1

BT20 = test system: BT20
Experimental: as §1

MCF10A = test system: MCF10A
Experimental: as §1

| Compound | normalised growth rate inhibition (MDAMB231; 0.04 µM) | normalised growth rate inhibition (MDAMB231; 0.12 µM) | normalised growth rate inhibition (MDAMB231; 0.37 µM) | normalised growth rate inhibition (MDAMB231; 1.11 µM) | normalised growth rate inhibition (MDAMB231; 3.33 µM) | normalised growth rate inhibition (MDAMB231; 10 µM) | normalised growth rate inhibition (MCF7; 0.04 µM) | normalised growth rate inhibition (MCF7; 0.12 µM) | normalised growth rate inhibition (MCF7; 0.37 µM) | normalised growth rate inhibition (MCF7; 1.11 µM) | normalised growth rate inhibition (MCF7; 3.33 µM) | normalised growth rate inhibition (MCF7; 10 µM) | normalised growth rate inhibition (SKBR3; 0.04 µM) | normalised growth rate inhibition (SKBR3; 0.12 µM) | normalised growth rate inhibition (SKBR3; 0.37 µM) | normalised growth rate inhibition (SKBR3; 1.11 µM) | normalised growth rate inhibition (SKBR3; 3.33 µM) | normalised growth rate inhibition (SKBR3; 10 µM) | normalised growth rate inhibition (HS578T; 0.04 µM) | normalised growth rate inhibition (HS578T; 0.12 µM) | normalised growth rate inhibition (HS578T; 0.37 µM) | normalised growth rate inhibition (HS578T; 1.11 µM) | normalised growth rate inhibition (HS578T; 3.33 µM) | normalised growth rate inhibition (HS578T; 10 µM) | normalised growth rate inhibition (BT20; 0.04 µM) | normalised growth rate inhibition (BT20; 0.12 µM) | normalised growth rate inhibition (BT20; 0.37 µM) | normalised growth rate inhibition (BT20; 1.11 µM) | normalised growth rate inhibition (BT20; 3.33 µM) | normalised growth rate inhibition (BT20; 10 µM) | normalised growth rate inhibition (MCF10A; 0.04 µM) | normalised growth rate inhibition (MCF10A; 0.12 µM) | normalised growth rate inhibition (MCF10A; 0.37 µM) | normalised growth rate inhibition (MCF10A; 1.11 µM) | normalised growth rate inhibition (MCF10A; 3.33 µM) | normalised growth rate inhibition (MCF10A; 10 µM) |
| --- | --- | --- | --- | --- | --- | --- | --- | --- | --- | --- | --- | --- | --- | --- | --- | --- | --- | --- | --- | --- | --- | --- | --- | --- | --- | --- | --- | --- | --- | --- | --- | --- | --- | --- | --- | --- |
| Cc1nc(NC(=O)N2CCC[C@H]2C(N)=O)sc1-c1ccnc(C(C)(C)C(F)(F)F)c1 | 0.997 ± 0.058 | 0.986 ± 0.038 | 0.963 ± 0.048 | 0.935 ± 0.032 | 0.89 ± 0.015 | 0.65 ± 0.09 | 0.871 ± 0.11 | 0.701 ± 0.1 | 0.508 ± 0.14 | 0.365 ± 0.11 | 0.204 ± 0.099 | -0.0344 ± 0.057 | 0.896 ± 0.061 | 0.811 ± 0.059 | 0.679 ± 0.051 | 0.553 ± 0.039 | 0.323 ± 0.11 | -0.0922 ± 0.15 | 0.971 ± 0.012 | 0.9151 ± 0.001 | 0.871 ± 0.026 | 0.838 ± 0.026 | 0.762 ± 0.011 | 0.561 ± 0.051 | 1.04 ± 0.017 | 0.979 ± 0.048 | 0.722 ± 0.027 | 0.553 ± 0.12 | 0.123 ± 0.047 | -0.157 ± 0.072 | 0.976 ± 0.022 | 0.94 ± 0.041 | 0.896 ± 0.061 | 0.865 ± 0.064 | 0.77 ± 0.11 | 0.439 ± 0.14 |
| Cn1cc(-c2[nH]c3cc(NC(=O)[C@H](N)C4CCCCC4)cc4c3c2C=NNC4=O)cn1 | 0.903 ± 0.039 | 0.913 ± 0.087 | 0.747 ± 0.14 | 0.535 ± 0.21 | 0.297 ± 0.22 | -0.0135 ± 0.14 | 0.579 ± 0.056 | 0.411 ± 0.041 | 0.335 ± 0.04 | 0.235 ± 0.032 | 0.178 ± 0.018 | 0.0527 ± 0.038 | -0.00482 ± 0.19 | -0.09 ± 0.2 | -0.136 ± 0.17 | -0.151 ± 0.18 | -0.174 ± 0.14 | -0.183 ± 0.2 | 0.956 ± 0.018 | 0.601 ± 0.064 | 0.107 ± 0.12 | -0.0219 ± 0.17 | -0.0376 ± 0.14 | -0.103 ± 0.15 | 0.886 ± 0.045 | 0.96 ± 0.035 | 0.9538 ± 0.0067 | 0.931 ± 0.027 | 0.8 ± 0.063 | 0.129 ± 0.15 | 0.9601 ± 0.0087 | 0.914 ± 0.022 | 0.83 ± 0.037 | 0.63 ± 0.071 | 0.267 ± 0.17 | -0.0312 ± 0.061 |
| N#CC(c1ccnc(NCCc2cccnc2)n1)c1nc2ccccc2s1 (stereo not drawn) | 0.906 ± 0.026 | 0.905 ± 0.023 | 0.92 ± 0.023 | 0.94 ± 0.066 | 0.95 ± 0.096 | 0.726 ± 0.076 | 0.812 ± 0.044 | 0.877 ± 0.091 | 0.923 ± 0.12 | 0.883 ± 0.076 | 0.945 ± 0.085 | 0.659 ± 0.071 | 0.669 ± 0.056 | 0.809 ± 0.11 | 0.876 ± 0.081 | 0.84 ± 0.098 | 0.749 ± 0.13 | 0.383 ± 0.056 | 0.988 ± 0.016 | 1.01 ± 0.022 | 1.023 ± 0.0087 | 1.025 ± 0.0078 | 1.03 ± 0.023 | 0.932 ± 0.06 | 0.879 ± 0.031 | 0.922 ± 0.034 | 0.999 ± 0.044 | 1.03 ± 0.05 | 1.05 ± 0.035 | 1 ± 0.11 | 0.993 ± 0.015 | 0.986 ± 0.011 | 0.982 ± 0.011 | 0.987 ± 0.012 | 0.987 ± 0.016 | 0.707 ± 0.14 |
| Nc1ccc(C(=O)Nc2cccc(-c3nc(N4CCOCC4)c4oc5ncccc5c4n3)c2)cn1 | 1.04 ± 0.032 | 0.954 ± 0.058 | 0.869 ± 0.082 | 0.747 ± 0.094 | 0.657 ± 0.14 | 0.0924 ± 0.24 | 1.06 ± 0.031 | 0.963 ± 0.034 | 0.856 ± 0.046 | 0.606 ± 0.041 | 0.37 ± 0.12 | -0.043 ± 0.35 | 1.12 ± 0.043 | 1.03 ± 0.053 | 1.03 ± 0.075 | 0.89 ± 0.072 | 0.769 ± 0.052 | 0.17 ± 0.047 | 1.02 ± 0.029 | 0.984 ± 0.013 | 0.972 ± 0.033 | 0.865 ± 0.022 | 0.668 ± 0.029 | 0.13 ± 0.053 | 1.06 ± 0.025 | 0.999 ± 0.032 | 0.938 ± 0.029 | 0.746 ± 0.053 | 0.577 ± 0.07 | 0.0483 ± 0.094 | 1.015 ± 0.0057 | 0.989 ± 0.01 | 0.951 ± 0.022 | 0.824 ± 0.025 | 0.734 ± 0.051 | 0.301 ± 0.043 |
| O=C(NOCC1CC1)c1ccc(F)c(F)c1Nc1ccc(I)cc1Cl | 0.992 ± 0.058 | 0.8538 ± 0.0075 | 0.77 ± 0.023 | 0.63 ± 0.057 | 0.513 ± 0.05 | 0.181 ± 0.087 | 0.915 ± 0.15 | 0.81 ± 0.13 | 0.718 ± 0.059 | 0.646 ± 0.074 | 0.574 ± 0.034 | 0.344 ± 0.037 | 1.08 ± 0.054 | 1.05 ± 0.048 | 1.04 ± 0.023 | 1.02 ± 0.031 | 0.972 ± 0.077 | 0.611 ± 0.061 | 0.783 ± 0.081 | 0.686 ± 0.097 | 0.605 ± 0.12 | 0.528 ± 0.12 | 0.476 ± 0.094 | 0.267 ± 0.067 | 1.05 ± 0.03 | 1.032 ± 0.009 | 1.01 ± 0.043 | 0.9868 ± 0.0023 | 0.95 ± 0.018 | 0.289 ± 0.18 | 0.661 ± 0.016 | 0.547 ± 0.058 | 0.454 ± 0.059 | 0.371 ± 0.079 | 0.279 ± 0.068 | 0.165 ± 0.07 |
| O=C(NOC[C@H](O)CO)c1ccc(F)c(F)c1Nc1ccc(I)cc1F | 0.605 ± 0.043 | 0.413 ± 0.029 | 0.264 ± 0.033 | 0.0779 ± 0.1 | -0.0448 ± 0.12 | -0.0975 ± 0.13 | 0.608 ± 0.044 | 0.539 ± 0.02 | 0.503 ± 0.05 | 0.442 ± 0.039 | 0.254 ± 0.06 | 0.0358 ± 0.091 | 0.953 ± 0.066 | 0.902 ± 0.057 | 0.913 ± 0.049 | 0.728 ± 0.027 | 0.445 ± 0.05 | 0.196 ± 0.14 | 0.513 ± 0.088 | 0.402 ± 0.055 | 0.328 ± 0.023 | 0.247 ± 0.061 | 0.119 ± 0.078 | 0.0542 ± 0.11 | 0.907 ± 0.095 | 0.864 ± 0.059 | 0.838 ± 0.1 | 0.708 ± 0.14 | 0.565 ± 0.086 | 0.439 ± 0.064 | 0.263 ± 0.072 | 0.184 ± 0.072 | 0.175 ± 0.077 | 0.134 ± 0.083 | 0.0915 ± 0.085 | 0.0555 ± 0.074 |
| O=C1NC(=O)/C(=C/c2ccc3nccc(-c4ccncc4)c3c2)S1 | 1.03 ± 0.083 | 0.992 ± 0.052 | 0.912 ± 0.049 | 0.513 ± 0.18 | 0.131 ± 0.25 | -0.0544 ± 0.27 | 0.983 ± 0.059 | 0.844 ± 0.057 | 0.581 ± 0.08 | 0.224 ± 0.075 | -0.0358 ± 0.081 | -0.203 ± 0.081 | 0.987 ± 0.084 | 0.81 ± 0.14 | 0.541 ± 0.15 | 0.0268 ± 0.1 | -0.291 ± 0.12 | -0.421 ± 0.12 | 0.948 ± 0.035 | 0.835 ± 0.057 | 0.647 ± 0.083 | 0.372 ± 0.044 | 0.0713 ± 0.13 | -0.118 ± 0.12 | 0.934 ± 0.086 | 0.638 ± 0.15 | 0.192 ± 0.15 | -0.221 ± 0.082 | -0.352 ± 0.1 | -0.44 ± 0.1 | 0.987 ± 0.039 | 0.887 ± 0.11 | 0.608 ± 0.17 | 0.143 ± 0.074 | -0.0425 ± 0.058 | -0.115 ± 0.059 |
| c1ccc2c(-c3cnn4cc(-c5ccc(N6CCNCC6)cc5)cnc34)ccnc2c1 | 0.996 ± 0.073 | 0.938 ± 0.084 | 0.925 ± 0.072 | 0.727 ± 0.056 | 0.0105 ± 0.45 | -0.355 ± 0.038 | 1.08 ± 0.047 | 1 ± 0.075 | 1.01 ± 0.072 | 0.868 ± 0.044 | 0.258 ± 0.34 | -0.368 ± 0.019 | 1.09 ± 0.11 | 1.04 ± 0.11 | 1.09 ± 0.056 | 0.987 ± 0.048 | -0.0902 ± 0.23 | -0.515 ± 0.11 | 0.952 ± 0.025 | 0.911 ± 0.011 | 0.897 ± 0.027 | 0.862 ± 0.072 | 0.244 ± 0.58 | -0.361 ± 0.083 | 0.994 ± 0.036 | 0.905 ± 0.039 | 0.915 ± 0.093 | 0.645 ± 0.21 | -0.08 ± 0.34 | -0.507 ± 0.082 | 0.999 ± 0.014 | 0.9817 ± 0.0032 | 0.9705 ± 0.0076 | 0.953 ± 0.032 | 0.661 ± 0.34 | -0.396 ± 0.11 |
